Each structure is given as a SMILES string.

The first experiment in a line: Inhibition of RIP1 in mouse L929 cells assessed as reduction in TNFalpha/z-VAD-FMK-induced necrosis after 6 hrs by Cell Titer-Glo luminescent cell viability assay. Background: In ATP-based viability assays light output follows the ATP content of the culture.
What is called EC50 is the concentration needed to bring the measured effect to its halfway point. For the compound `CCC(C)(C)C(=O)N(O)Cc1ccccc1`, the EC50 stood at 27 nM.

The next experiment is described as follows: Inhibition of RIP1 in human HT-29 cells assessed as reduction in TNFalpha/z-VAD-FMK-induced necrosis after 24 hrs by Cell Titer-Glo luminescent cell viability assay.
`CCC(C)(C)C(=O)N(C)Cc1ccccc1F`: the EC50 was 125 nM.

Turning to `CCC(C)(C)C(=O)N(C)Cc1cc(F)cc(F)c1F`, the EC50 came to 12 nM. Same read-out and setting: the value for `CCC(C)(C)C(=O)N(C)Cc1cccc(F)c1F` was 58 nM; that for `CCC(C)(C)C(=O)NCc1ccccc1Br` was 8560 nM; that for `CCC(C)(C)C(=O)N(C)Cc1cccc(Cl)c1` was 628 nM. Consider `CCC(C)(C)C(=O)N(C)Cc1ccncc1F`, for which the EC50 was over 10000 nM.

Test in the next experiment: as above
The source holds these as a separate data set.
For `CCC(C)(C)C(=O)NCc1ccccc1`, the EC50 came out at 4100 nM. With `CCC(C)(C)C(=O)N(C)Cc1ccccc1`, the EC50 came out at 457 nM. Take `CCC(C)(C)C(=O)N(C)Cc1cnc(C)s1`: the EC50 was over 10000 nM. Regarding `CN(Cc1cc(F)cc(F)c1F)C(=O)C1(C(F)(F)F)CCC1`, the EC50 came to 656 nM. On to `CCC(C)(C)C(=O)N(O)Cc1ccc(F)c(F)c1F`, for which the EC50 was determined as 262 nM. In the case of `CCC(C)(C)C(=O)NC(C)(C)c1ccccc1`, the EC50 was over 10000 nM.

Consider `CCC(C)(C)C(=O)N(C)Cc1ccc(C)s1`, for which the EC50 came out at 378 nM. Still for that read-out and setting: the value for `CCC(C)(C)C(=O)N(O)Cc1ccccc1` was 28 nM.

`CCC(C)(C)C(=O)N(C)Cc1sccc1C`: the EC50 stood at 2530 nM. The same measure, in the same setting: the value for `CCC(C)(C)C(=O)NC(CO)c1ccccc1` (stereo not given) was 1080 nM. The same measure, in the same setting: the value for `CCC(C)(C)C(=O)N(C)Cc1ccn(C)n1` was over 10000 nM; that for `CN(Cc1cc(F)cc(F)c1F)C(=O)C1(C)CC1` was over 10000 nM.

For the compound `CCC(C)(C)C(=O)NC(C)c1ccccc1` (stereo not given), the EC50 is over 10000 nM.

Turning to `CCC(C)(C)C(=O)N(C)Cc1cccnc1`, the EC50 came to 1740 nM.

Regarding `CCN(Cc1ccccc1F)C(=O)C(C)(C)CC`, the EC50 was over 10000 nM. Take `CCC(C)(C)C(=O)N(C)Cc1ccc(F)cc1`: the EC50 came to 815 nM.

In the case of `CCC(C)(C)C(=O)N(O)Cc1ccc(F)cc1`, the concentration giving a half-maximal response (EC50) was 64 nM.

With `CCC(C)(C)C(=O)N(O)Cc1cc(F)c(F)c(F)c1`, the EC50 stood at 49 nM. For the compound `CN(Cc1cc(F)cc(F)c1F)C(=O)C1(C)CCCCC1`, the EC50 turned out to be 490 nM. For `CCC(C)(C)C(=O)N(C)Cc1cc(F)ccc1F`, the EC50 is 36 nM. `CCC(C)(C)C(=O)N(C)Cc1cccc(O)c1`: the EC50 was over 3000 nM. In the case of `CCC(C)(C)C(=O)N(C)Cc1ccncc1`, the EC50 is over 10000 nM. As to `CN(Cc1cc(F)cc(F)c1F)C(=O)C1CCC1`, the EC50 was 8240 nM. For the compound `CN(Cc1cc(F)cc(F)c1F)C(=O)C1(C(F)(F)F)CCCC1`, the EC50 was found to be 1230 nM. The same measure, in the same setting: the value for `CCC(C)(C)C(=O)NC1(c2ccccc2)CC1` was over 5000 nM; that for `CCC(C)(C)C(=O)N(C)C(C)(C)c1ccccc1` was over 10000 nM.

With `CCC(C)(C)C(=O)N(O)Cc1cc(F)cc(F)c1F`, the 50% effective concentration (EC50) was 74 nM. For `CCC(C)(C)C(=O)N(C)Cc1c(F)cc(F)cc1F`, the EC50 came out at 1250 nM.

Take `CCC(C)(C)C(=O)N(C)Cc1ccccc1Cl`: the EC50 was over 10000 nM.

`CN(Cc1cc(F)cc(F)c1F)C(=O)C(C)(C)CO`: the EC50 was over 3000 nM. As for `CC(C)N(C)C(=O)N(C)Cc1cc(F)cc(F)c1F`, the EC50 was over 3000 nM. On the same count and under the same terms, the value for `CC(C)N(C(=O)N(C)Cc1cc(F)cc(F)c1F)C(C)C` was over 3000 nM; that for `CCC(C)(C)C(=O)N(O)Cc1ccc(F)cc1F` was 198 nM. On to `CCC(C)(C)C(=O)NCc1cccc(Br)c1`, for which the EC50 is over 10000 nM. On to `CCC(C)(C)C(=O)N(C)Cc1cc(C)c(C)s1`, for which the EC50 came out at 1310 nM. With `CCC(C)(C)C(=O)N(C)C(C)c1ccccc1` (stereo not given), the EC50 is over 10000 nM. For the compound `CCC(C)(C)C(=O)N(C)Cc1ccc(F)cc1F`, the EC50 was 627 nM. With `CC1CCCC(C)N1C(=O)N(C)Cc1cc(F)cc(F)c1F` (stereo not given), the EC50 was determined as 1530 nM. In the case of `CCC(C)(C)C(=O)N(C)C(CO)c1ccccc1` (stereo not given), the EC50 was over 10000 nM. The same measure, in the same setting: the value for `COC(C)(C)C(=O)N(C)Cc1cc(F)cc(F)c1F` was over 10000 nM; that for `CCC(C)(C)C(=O)NCc1ccccc1F` was 898 nM. Take `CCC(C)(C)C(=O)N(C)Cc1cccc(F)c1`: the EC50 was 72 nM. For `CN(Cc1cc(F)cc(F)c1F)C(=O)C(C)(C)C`, the EC50 was 98 nM. The same measure, in the same setting: the value for `CC1CCCCN1C(=O)N(C)Cc1cc(F)cc(F)c1F` (stereo not given) was over 3000 nM. Same read-out and setting: the value for `CCC(C)(C)C(=O)N(O)Cc1ccc(F)c(F)c1` was 56 nM; that for `CCC(C)(C)C(=O)N(C)Cc1cccs1` was 221 nM; that for `CCC(C)(C)C(=O)N(C)Cc1cccc(Br)c1` was 1230 nM. Still for that read-out and setting: the value for `CCC(C)(C)C(=O)N(C)Cc1ccco1` was 628 nM.

(Values after BindingDB's records for doi:10.1021/acs.jmedchem.6b01196 (National Institute of Biological Sciences, 2017).)
